Tests used:
RIPK1 = RIPK1 (Homo sapiens (Human), UniProt Q13546); test: In vitro kinase assay (Eurofins Kinase Profiler), IC50; assay type: biochemical; settings: 0.001-10 μM, read-out: RIPK 1 (IC50)
HT-29 cells = test: Protection against programmed necrosis of HT-29 cells (TNF α/Smac mimetic/Z-VAD-FMK, CCK8); assay type: cell-based; settings: Homo sapiens, TNF α/Smac mimetic/Z-VAD-FMK induced 24 h, CCK8, read-out: HT-29 (EC50)

RIPK1, sequence (Q13546 whole entry): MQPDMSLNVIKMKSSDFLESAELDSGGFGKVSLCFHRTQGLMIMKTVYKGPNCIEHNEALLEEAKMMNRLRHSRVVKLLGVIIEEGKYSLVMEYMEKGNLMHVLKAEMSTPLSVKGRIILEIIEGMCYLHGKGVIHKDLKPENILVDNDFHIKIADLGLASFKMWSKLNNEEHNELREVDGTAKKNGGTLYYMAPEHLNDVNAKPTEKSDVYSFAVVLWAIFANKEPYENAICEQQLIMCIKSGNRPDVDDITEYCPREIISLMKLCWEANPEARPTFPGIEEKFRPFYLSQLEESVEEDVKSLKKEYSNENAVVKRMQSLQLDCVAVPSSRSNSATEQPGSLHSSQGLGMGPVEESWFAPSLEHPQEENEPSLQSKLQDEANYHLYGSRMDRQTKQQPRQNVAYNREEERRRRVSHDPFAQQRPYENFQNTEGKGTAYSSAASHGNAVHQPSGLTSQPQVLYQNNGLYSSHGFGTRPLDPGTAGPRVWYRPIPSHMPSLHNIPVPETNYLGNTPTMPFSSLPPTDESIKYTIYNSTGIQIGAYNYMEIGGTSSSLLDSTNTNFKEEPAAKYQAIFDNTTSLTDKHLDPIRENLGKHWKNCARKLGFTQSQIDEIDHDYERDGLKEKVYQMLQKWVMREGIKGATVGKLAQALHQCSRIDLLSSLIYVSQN

`C[C@H](NC(=O)c1cn(C)c2ccc(-c3ccn4nc(NC(=O)N5CC[C@@H](O)C5)nc4c3)cc12)c1cccc(F)c1` [Compound 162, N-((S)-1-(3-fluorophenyl)ethyl)-5-(2-((R)-3-hydroxypyrrolidine-1-carboxamido)-[1,2,4]triazolo[1,5-a]pyridin-7-yl)-1-methyl-1H-indole-3-carboxamide] showed an IC50 (RIPK1) of 0.01 to 0.1 µM and an EC50 (HT-29 cells) of 0.01 to 0.1 µM.
Compound `C[C@H](NC(=O)c1cn(C)c2ccc(-c3ccn4nc(NC(=O)N5CC[C@H](O)C5)nc4c3)cc12)c1cccc(F)c1` [Compound 163] has an IC50 (RIPK1) of 0.1 to 1 µM and an EC50 (HT-29 cells) of 0.01 to 0.1 µM.
Work on `C[C@H](NC(=O)c1cn(C)c2ccc(-c3ccn4nc(NC(=O)N5CCC[C@H]5CO)nc4c3)cc12)c1cccc(F)c1` [Compound 164] yielded an IC50 (RIPK1) of 0.1 to 1 µM and an EC50 (HT-29 cells) of 0.001 to 0.01 µM.
`C[C@H](NC(=O)c1cn(C)c2ccc(-c3ccn4nc(NC(=O)N[C@@H](C)CO)nc4c3)cc12)c1cccc(F)c1` [Compound 165] showed an IC50 (RIPK1) of 0.01 to 0.1 µM and an EC50 (HT-29 cells) of under 0.001 µM.
`CC(NC(=O)c1cn(C)c2ccc(-c3ccn4nc(NC(=O)C5CC5)nc4c3)cc12)c1ccc(F)c(F)c1` (stereo not drawn) [Compound 167] was tested, and the IC50 (RIPK1) was 0.01 to 0.1 µM and the EC50 (HT-29 cells) was 0.01 to 0.1 µM.
For `C[C@H](NC(=O)c1cn(C)c2ccc(-c3ccn4nc(NC(=O)N5CCCC(O)C5)nc4c3)cc12)c1cccc(F)c1` (stereo partly drawn) [Compound 169], the IC50 (RIPK1) was 0.001 to 0.01 µM and the EC50 (HT-29 cells) was under 0.001 µM.
`C[C@H](NC(=O)c1cn(C)c2ccc(-c3ccn4nc(NC(=O)N5CCC(O)CC5)nc4c3)cc12)c1cccc(F)c1` [Compound 170] was tested, and the IC50 (RIPK1) was 0.001 to 0.01 µM and the EC50 (HT-29 cells) was under 0.001 µM.
`CC(C)CNc1nc2cc(-c3ccc4c(c3)c(C(=O)N[C@@H](C)c3cccc(F)c3)cn4C)ccn2n1` [Compound 171] showed an IC50 (RIPK1) of 0.001 to 0.01 µM and an EC50 (HT-29 cells) of under 0.001 µM.
For `C[C@H](NC(=O)c1cn(C)c2ccc(-c3ccn4nc(NC(=O)N5CC(O)C5)nc4c3)cc12)c1cccc(F)c1` [Compound 172], the IC50 (RIPK1) was at least 1 µM and the EC50 (HT-29 cells) was 0.1 to 1 µM.
With `Cn1cc(C(=O)N2CCC[C@H]2c2cccc(F)c2)c2cc(-c3ccn4nc(NC(=O)C5CC5)nc4c3)ccc21` [Compound 173] the IC50 (RIPK1) was 0.001 to 0.01 µM and the EC50 (HT-29 cells) was under 0.001 µM.
`CC(C)C(=O)Nc1nc2cc(-c3ccc4c(c3)c(C(=O)N[C@@H](C)c3ccncc3)cn4C)ccn2n1` [Compound 175] was tested, and the IC50 (RIPK1) was 0.01 to 0.1 µM and the EC50 (HT-29 cells) was 0.01 to 0.1 µM.
`C[C@H](NC(=O)c1cn(C)c2ccc(-c3ccn4nc(NC(=O)C5CC5)nc4c3)cc12)c1ccncc1` [Compound 176] was tested, and the IC50 (RIPK1) was 0.1 to 1 µM and the EC50 (HT-29 cells) was 0.1 to 1 µM.
Compound `C[C@H](NC(=O)c1cn(C)c2ccc(-c3ccn4nc(NC(=O)N5CCC[C@@H]5CO)nc4c3)cc12)c1cccc(F)c1` [Compound 177] has an IC50 (RIPK1) of 0.01 to 0.1 µM and an EC50 (HT-29 cells) of 0.01 to 0.1 µM.
`C[C@H](NC(=O)c1cn(C)c2ccc(-c3ccn4nc(NC(=O)N5CCNCC5)nc4c3)cc12)c1cccc(F)c1` [Compound 178] gave an IC50 (RIPK1) of 0.001 to 0.01 µM and an EC50 (HT-29 cells) of 0.001 to 0.01 µM.
In the case of `C[C@H](NC(=O)c1cn(C)c2ccc(-c3ccn4nc(NC(=O)[C@H]5CCCN5)nc4c3)cc12)c1cccc(F)c1` [Compound 179], the IC50 (RIPK1) is reported as under 0.001 µM and the EC50 (HT-29 cells) is reported as under 0.001 µM.
`C[C@H](NC(=O)c1cn(C)c2ccc(-c3ccn4nc(NC(=O)[C@@H]5CCCN5)nc4c3)cc12)c1cccc(F)c1` [Compound 180] was tested, and the IC50 (RIPK1) was 0.001 to 0.01 µM and the EC50 (HT-29 cells) was under 0.001 µM.
`COc1ccc([C@H](C)NC(=O)c2cn(C)c3ccc(-c4ccn5nc(NC(=O)C6CC6)nc5c4)cc23)cc1F` [Compound 181] gave an IC50 (RIPK1) of 0.1 to 1 µM and an EC50 (HT-29 cells) of 0.1 to 1 µM.
Work on `C[C@H](NC(=O)c1cn(C)c2ccc(-c3ccn4nc(NC(=O)C5CC5)nc4c3)cc12)c1ccc(F)c(F)c1` [Compound 182] yielded an IC50 (RIPK1) of 0.001 to 0.01 µM and an EC50 (HT-29 cells) of under 0.001 µM.
In the case of `Cn1cc(C(=O)N[C@H]2CCc3ccc(F)cc32)c2cc(-c3ccn4nc(NC(=O)C5CC5)nc4c3)ccc21` [Compound 183], the IC50 (RIPK1) is reported as 0.1 to 1 µM and the EC50 (HT-29 cells) is reported as 0.1 to 1 µM.
Compound `Cn1cc(C(=O)N[C@H]2CCCc3ccc(F)cc32)c2cc(-c3ccn4nc(NC(=O)C5CC5)nc4c3)ccc21` [Compound 184] has an IC50 (RIPK1) of 0.1 to 1 µM and an EC50 (HT-29 cells) of 0.1 to 1 µM.
`Cn1cc(C(=O)N2CCCC2c2cccc(F)c2)c2cc(-c3ccn4nc(NC(=O)C5CC5)cc4n3)ccc21` (stereo not drawn) [Compound 185] was tested, and the IC50 (RIPK1) was 0.001 to 0.01 µM and the EC50 (HT-29 cells) was under 0.001 µM.

Source: patent publication US20230365546A1, “5-SUBSTITUTED INDOLE 3-AMIDE DERIVATIVES, PREPARATION METHOD AND USE THEREOF” (ORIGIANT PHARMACEUTICAL CO., LTD, priority 2020, published 2023)
